The values that follow come from publication PMC2810339, “Allosteric Regulation of HIV-1 Reverse Transcriptase by ATP for Nucleotide Selection” (PLoS ONE, 2010).

Type in all cases: biochemical, HIV-1
Experiment [1] concerns multi-NRTI-resistant RT (ERT-mt6), purified p51/p66 heterodimer. The experiment is described as follows: RNA-dependent DNA polymerase activity, dTTP incorporation into poly (rA)·p(dT)12-18, steady-state kinetics. The settings on record: for fold increase in IC50 of AZTTP compared to AZTTP without the compound: in the presence of 5 mM of the indicated compound; for fold increase in Ki^NRTI value compared to without ATP: at 3 mM of ATP. On the procedure:
(§1) RNA-dependent DNA polymerase activity was measured using [α-^32P]dTTP and poly(rA)/poly(dT)12-18 as described previously. […] These experiments were performed in duplicate and repeated two to six times.
(§2) The averages of the experimental data were fit by a nonlinear regression method using the program Igor Pro (WaveMetrics, USA). The kinetics parameters were determined by the Michaelis-Menten equation: [drawing 1] (1) where [S] is the substrate concentration; Km^app is the apparent Michaelis-Menten constant; and Vmax^app is the apparent maximal rate attained when the enzyme active sites are saturated by substrate.
(§3) Using this model, the enzyme kinetic parameters were calculated using Equations 2–5.
(§4) Vmax^app and Km^app are defined as [drawing 2] (2) and [drawing 3] (3) respectively, where Km is the Michaelis-Menten constant; [E] is the enzyme concentration; [I] is the inhibitor concentration; Ki and Ki′ are the inhibition constants for the enzyme and the complex of the enzyme with substrate; and kcat^app is the apparent turnover number: [drawing 4] (4) where kcat is the turnover number.
(§5) The kcat^app and Km^app that can be derived from the model (Figure 2C) are [drawing 5] (5) and [drawing 6] (6) where Ki^ATP is the dissociation constant of ATP; Ki^AZTTP is the dissociation constant of AZTTP; [I^ATP] is the ATP concentration; and [I^AZTTP] is the AZTTP concentration.

The subject of experiment [2] is NRTI-sensitive RT (93JP-NH1), purified p51/p66 heterodimer. The description is as above. The settings on record: for fold increase in Ki^NRTI value compared to without ATP: at 3 mM of ATP. As to the method:
as §1, §2, §3, §4, §5

Experiment [3] has as its system D113A/N mutants of ERT-mt6 RT. The experiment is described as follows: RNA-dependent DNA polymerase activity of site-directed RT mutants from ERT-mt6. The settings on record: D113A/N versus ERT-mt6 RT; 5 mM ATP (Figure S4C). As to the method:
The purified RTs were dissolved in the RT stock buffer (50 mM Tris-HCl pH 7.5, 75 mM KCl, 5 mM MgCl2, 2 mM DTT, 0.05% NP40, and 50% glycerol)[32], [33] and kept at −30°C until use. RNA-dependent DNA polymerase activity was measured using [α-^32P]dTTP and poly(rA)/poly(dT)12-18 as described previously. For the RT reaction in the presence of ATP, RT activities were measured in 100 µl of RT reaction cocktail consisting of 50 mM Tris-HCl pH 7.5, 75 mM KCl, 5 mM MgCl2, 2 mM DTT, 0.05% NP40, and 50% glycerol containing RT (1–10 nM), dTTP (0.2–18 µM), and ATP (0–4 mM). For the RT reaction in the presence of ATP and NRTI, RT activities were measured in 100 µl of the RT reaction cocktail containing RT (1–10 nM), dTTP (0.2–18 µM), ATP (0–5 mM), and AZTTP or d4TTP (0–1 µM). These experiments were performed in duplicate and repeated two to six times. […]
Supplementary file pone.0008867.s004.tif: Figure S4 Data on RT mutants from the ERT-mt6 RT. […] RNA-dependent DNA polymerase activity of the purified RTs (20 nM) was measured using a [α-^32P]dTTP and poly (rA)⋅p(dT)12-18 system. […] RNA-dependent DNA polymerase activity of the purified mutant RTs was measured using various concentrations of [α-^32P]dTTP and poly (rA)⋅p(dT)12-18 in the presence of ATP. […]

Setting [4] is: 0-4 mM ATP, Lineweaver-Burk double-reciprocal plots.
Where [5] appears, read: ATP binding to RT-template-primer complex (RT complex 1).
The mark [6] stands for this setting: ATP binding to RT-template-primer-dTTP complex (RT complex 2).
Where [7] appears, read: dTTP incorporation, absence of ATP.

As to `Nc1ncnc2c1ncn2[C@@H]1O[C@H](COP(=O)(O)OP(=O)(O)NP(=O)(O)O)[C@@H](O)[C@H]1O` [AMP-PNP, Adenosine 5′-(β, γ-imido) triphosphate], the “fold increase in IC50 of AZTTP compared to AZTTP without the compound” value (shortened to “fold increase … to AZTTP without the compound”) in experiment [1] is recorded as “approximately 150 fold”.

As usually defined, the Ki is a measure of affinity in units of concentration, obtained from inhibition or displacement. In the case of `Nc1ncnc2c1ncn2[C@@H]1O[C@H](COP(=O)(O)OP(=O)(O)OP(=O)(O)O)[C@@H](O)[C@H]1O` [ATP], the “mode of inhibition of dTTP incorporation” value in experiment [2] (setting [4]) and in experiment [1] (setting [4]) was “mixed noncompetitive inhibition” each time. Further, the Ki in experiment [2] (setting [5]) turned out to be 2900 ± 1300 µM; in experiment [1] (setting [5]), 2800 ± 1300 µM. In addition, the “Ki′^ATP” value was 1200 ± 500 µM in experiment [2] (setting [6]) and 1100 ± 400 µM in experiment [1] (setting [6]). Besides, the “fold increase … to AZTTP without the compound” value in experiment [1] is “approximately 350 fold”.

With `Cc1cn([C@H]2C[C@H](N=[N+]=[N-])[C@@H](COP(=O)(O)OP(=O)(O)OP(=O)(O)O)O2)c(=O)[nH]c1=O` [AZTTP, 3′-Azido 3′-deoxythymidine 5′-triphosphate], the “fold reduction in the IC50 of AZTTP” value in experiment [3] was 4- to 5 fold. The results for the “fold increase in Ki^NRTI value compared to without ATP” value in experiment [2] and in experiment [1] were “about 6.8 fold” and “about 30 fold”, respectively.

With `Cc1cn([C@H]2C=C[C@@H](COP(=O)(O)OP(=O)(O)OP(=O)(O)O)O2)c(=O)[nH]c1=O` [d4TTP, 3′-deoxy-2′, and 3′-didehydrothymidine 5′-triphosphate], the “fold increase in Ki^NRTI value compared to without ATP” value in experiment [2] is recorded as ~0.6 fold; in experiment [1] it was ~8.5 fold.

A word on the kcat: it is the number of substrate molecules converted per active site and unit of time at saturation. The term Km denotes the concentration of substrate that gives half-maximal velocity. Regarding `Cc1cn([C@H]2C[C@H](O)[C@@H](COP(=O)(O)OP(=O)(O)OP(=O)(O)O)O2)c(=O)[nH]c1=O` [dTTP], the kcat worked out at 1.04 ± 0.01 s⁻¹ in experiment [2] (setting [7]) and 0.49 ± 0.01 s⁻¹ in experiment [1] (setting [7]). Further, the Km was determined as 4 ± 0.1 µM in experiment [2] (substrate dTTP, absence of ATP) and 13.8 ± 0.5 µM in experiment [1] (substrate dTTP, absence of ATP).

For NaPO4, the “fold increase … to AZTTP without the compound” value in experiment [2] (in the presence of 5 mM of the indicated compound) and in experiment [1] was “little effect” each time.
